According to US12503475B2 (Centessa Pharmaceuticals (UK) Limited, priority 2020, dated 2025):
Where two headings read alike, the source gives them in different places.

Molecular target: T1, human orexin type 2 receptor (hOX2R) (Homo sapiens, UniProt O43614)
T1 construct: expressed in transfected cells
T1 sequence (O43614 1-444): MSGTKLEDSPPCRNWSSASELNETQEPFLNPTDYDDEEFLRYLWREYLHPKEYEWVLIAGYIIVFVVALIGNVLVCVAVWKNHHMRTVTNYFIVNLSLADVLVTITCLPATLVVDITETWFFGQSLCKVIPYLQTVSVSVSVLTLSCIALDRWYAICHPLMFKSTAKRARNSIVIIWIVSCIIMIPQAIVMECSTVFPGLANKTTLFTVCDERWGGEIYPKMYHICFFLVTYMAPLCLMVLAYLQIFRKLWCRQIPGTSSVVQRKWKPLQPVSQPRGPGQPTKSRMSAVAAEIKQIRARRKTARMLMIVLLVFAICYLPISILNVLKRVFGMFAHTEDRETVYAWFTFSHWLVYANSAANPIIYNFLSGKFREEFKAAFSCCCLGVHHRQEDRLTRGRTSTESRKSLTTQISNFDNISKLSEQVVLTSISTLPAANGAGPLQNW
Assay: Measurement of orexin type 2 receptor agonist activity (FLIPR calcium fluorescence)
Format: cell-based
Settings: for Emax: CHO, read-out: hOx2 Emax (%)
How it was run: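 Agonism was read as fluorescence in cells stably expressing human OX2R. E. is the response at 10 μM relative to orexin A as full agonist (100%).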

[1] = CHO cells expressing hOX2R, FLIPR calcium fluorescence, read-out: hOx2 pEC50 (converted)
[2] = CHO cells expressing hOX2R, FLIPR calcium fluorescence

EC50 [1]	Emax [2]	hOx2 Emax (%) [2]	SMILES	Emax	EC50 (hOx2 pEC50, CHO cells expressing hOX2R, FLIPR calcium fluorescence)
1 to 10 nM	90 to 100%		CC(C)S(=O)(=O)N[C@@H]1[C@H](Cc2cc(F)cc(-c3ccccc3)c2F)N(C(=O)[C@H]2CCO2)CC12CC2 [Compound 396]		
1 to 10 nM	90 to 100%		O=C(NCCF)N1CC2(CC2)[C@H](NS(=O)(=O)CF)[C@@H]1Cc1cc(F)cc(-c2ccccc2)c1F [Compound 371, (6S,7S)-6-((2,5-difluoro-[1,1′-biphenyl]-3-yl)methyl)-N-(2-fluoroethyl)-7-((fluoromethyl)sulfonamido)-5-azaspiro[2.4]heptane-5-carboxamide]		
1 to 10 nM	90 to 100%		O=C(NCC1(F)CC1)N1CC2(CC2)[C@H](NS(=O)(=O)C(F)F)[C@@H]1Cc1cccc(-c2ccccc2)c1F [Compound 166, (6S,7S)-7-((difluoromethyl)sulfonamido)-6-((2-fluoro-[1,1′-biphenyl]-3-yl)methyl)-N-((1-fluorocyclopropyl)methyl)-5-azaspiro[2.4]heptane-5-carboxamide]		
1 to 10 nM	90 to 100%		COC[C@H](O)C(=O)N1CC2(CC2)[C@H](NS(=O)(=O)C(F)F)[C@@H]1Cc1cccc(-c2ccccc2)c1F [Compound 183, 1,1-difluoro-N-((6S,7S)-6-((2-fluoro-[1,1′-biphenyl]-3-yl)methyl)-5-((S)-2-hydroxy-3-methoxypropanoyl)-5-azaspiro[2.4]heptan-7-yl)methanesulfonamide]		
1 to 10 nM	90 to 100%		O=C([C@H](O)CF)N1CC2(CC2)[C@H](NS(=O)(=O)CF)[C@@H]1Cc1cc(F)cc(-c2ccccc2)c1F [Compound 190, N-((6S,7S)-6-((2,5-difluoro-[1,1′-biphenyl]-3-yl)methyl)-5-((S)-3-fluoro-2-hydroxypropanoyl)-5-azaspiro[2.4]heptan-7-yl)-1-fluoromethanesulfonamide]		
1 to 10 nM	90 to 100%		CN(CCF)C(=O)N1CC2(CC2)[C@H](NS(C)(=O)=O)[C@@H]1Cc1cccc(-c2ccccc2)c1F [Compound 82, (6S,7S)-6-((2-fluoro-[1,1′-biphenyl]-3-yl)methyl)-N-(2-fluoroethyl)-N-methyl-7-(methylsulfonamido)-5-azaspiro[2.4]heptane-5-carboxamide]		
0.0794 to 1 nM	90 to 100%		O=C([C@@H](O)C1CC1)N1CC2(CC2)[C@H](NS(=O)(=O)C(F)F)[C@@H]1Cc1cc(F)cc(-c2ccccc2)c1F [Compound 385]		
1 to 10 nM	90 to 100%		CC(C)(F)CNC(=O)N1CC2(CC2)[C@H](NS(=O)(=O)CF)[C@@H]1Cc1cccc(-c2ccccc2)c1F [Compound 410, (6S,7S)-N-(2-fluoro-2-methylpropyl)-6-((2-fluoro-[1,1′-biphenyl]-3-yl)methyl)-7-((fluoromethyl)sulfonamido)-5-azaspiro[2.4]heptane-5-carboxamide]		
> 1000 nM	90 to 100%		CS(=O)(=O)N[C@H]1[C@@H](Cc2cccc(-c3ccccc3)c2F)N(C(=O)[C@@H]2CCO2)CC12CC2 [Compound 19, N-((6R,7R)-6-((2-fluoro-[1,1′-biphenyl]-3-yl)methyl)-5-((S)-oxetane-2-carbonyl)-5-azaspiro[2.4]heptan-7-yl)methanesulfonamide]		
0.0794 to 1 nM	90 to 100%		O=C([C@H]1CCO1)N1CC2(CC2)[C@H](NS(=O)(=O)C2(F)CC2)[C@@H]1Cc1cccc(-c2ccccc2)c1F [Compound 420, 1-fluoro-N-((6S,7S)-6-((2-fluoro-[1,1′-biphenyl]-3-yl)methyl)-5-((R)-oxetane-2-carbonyl)-5-azaspiro[2.4]heptan-7-yl)cyclopropane-1-sulfonamide]		
10 to 100 nM	90 to 100%		CC[C@@H](O)C(=O)N1CC2(CC2)C(NS(C)(=O)=O)C1Cc1cccc(-c2ccccc2)c1 (mixture of isomers) [Compound 37, N-(6-([1,1′-biphenyl]-3-ylmethyl)-5-((R)-2-hydroxybutanoyl)-5-azaspiro[2.4]heptan-7-yl)methanesulfonamide]		
10 to 100 nM	90 to 100%		CC(C)C(=O)N1CC2(CC2)[C@H](NS(C)(=O)=O)[C@@H]1Cc1cccc(-c2ccccc2)c1 [Compound 17, N-((6S,7S)-6-([1,1′-biphenyl]-3-ylmethyl)-5-isobutyryl-5-azaspiro[2.4]heptan-7-yl)methanesulfonamide]		
100 to 1000 nM		C (Emax ranging between 70 and 80)	CC(F)C(=O)N1CC2(CC2)C(NS(C)(=O)=O)C1Cc1cccc(-c2ccccc2)c1 (single isomer, unassigned) [Compound 2, N-(6-([1,1′-biphenyl]-3-ylmethyl)-5-(2-fluoropropanoyl)-5-azaspiro[2.4]heptan-7-yl)methanesulfonamide]		
0.0794 to 1 nM	90 to 100%		CS(=O)(=O)NC1C(Cc2cccc(-c3cc(F)cc(F)c3)c2F)N(C(=O)N2CCC2)CC12CC2 (racemic) [Compound 30, N-(5-(azetidine-1-carbonyl)-6-((2,3′,5′-trifluoro-[1,1′-biphenyl]-3-yl)methyl)-5-azaspiro[2.4]heptan-7-yl)methanesulfonamide]		
10 to 100 nM	90 to 100%		CN(C)C(=O)N1CC2(CC2)[C@H](NS(C)(=O)=O)[C@@H]1Cc1cc(F)cc(-c2ccccc2)c1F [Compound 354, (6S,7S)-6-((2,5-difluoro-[1,1′-biphenyl]-3-yl)methyl)-N,N-dimethyl-7-(methylsulfonamido)-5-azaspiro[2.4]heptane-5-carboxamide]		
10 to 100 nM	90 to 100%		CS(=O)(=O)N[C@@H]1[C@H](Cc2cccc(-c3ccccc3)c2F)N(C(=O)NC2CC(F)(F)C2)CC12CC2 [Compound 83, (6S,7S)-N-(3,3-difluorocyclobutyl)-6-((2-fluoro-[1,1′-biphenyl]-3-yl)methyl)-7-(methylsulfonamido)-5-azaspiro[2.4]heptane-5-carboxamide]		
			CCNC(=O)N1CC2(CC2)[C@H](NS(C)(=O)=O)[C@@H]1Cc1cccc(-c2ccccc2)c1OC [Compound 54, (6S,7S)—N-ethyl-6-((2-methoxy-[1,1′-biphenyl]-3-yl)methyl)-7-(methylsulfonamido)-5-azaspiro[2.4]heptane-5-carboxamide]	80 to 90%	1 to 10 nM
0.0794 to 1 nM	90 to 100%		N#CC1(C(=O)N2CC3(CC3)[C@H](NS(=O)(=O)CF)[C@@H]2Cc2cc(F)cc(-c3ccccc3)c2F)CCC1 [Compound 413, N-((6S,7S)-5-(1-cyanocyclobutane-1-carbonyl)-6-((2,5-difluoro-[1,1′-biphenyl]-3-yl)methyl)-5-azaspiro[2.4]heptan-7-yl)-1-fluoromethanesulfonamide]		
0.0794 to 1 nM	90 to 100%		C[C@H](F)C(=O)N1CC2(CC2)[C@H](NS(=O)(=O)CF)[C@@H]1Cc1cccc(-c2cc(F)cc(F)c2)c1F [Compound 232, 1-fluoro-N-((6S,7S)-5-((S)-2-fluoropropanoyl)-6-((2,3′,5′-trifluoro-[1,1′-biphenyl]-3-yl)methyl)-5-azaspiro[2.4]heptan-7-yl)methanesulfonamide]		
1 to 10 nM	90 to 100%		CCS(=O)(=O)N[C@@H]1[C@H](Cc2cccc(-c3ccccc3)c2)N(C(=O)[C@H](O)C(F)(F)F)CC12CC2 [Compound 58, N-((6S,7S)-6-([1,1′-biphenyl]-3-ylmethyl)-5-((S)-3,3,3-trifluoro-2-hydroxypropanoyl)-5-azaspiro[2.4]heptan-7-yl)ethanesulfonamide]		
1 to 10 nM	90 to 100%		N#C[C@]1(C(=O)N2CC3(CC3)[C@H](NS(=O)(=O)CF)[C@@H]2Cc2cccc(-c3ccccc3)c2F)CCO1 [Compound 226, N-((6S,7S)-5-((S)-2-cyanooxetane-2-carbonyl)-6-((2-fluoro-[1,1′-biphenyl]-3-yl)methyl)-5-azaspiro[2.4]heptan-7-yl)-1-fluoromethanesulfonamide]		
0.0794 to 1 nM	90 to 100%		C[C@H](CF)NC(=O)N1CC2(CC2)[C@H](NS(=O)(=O)CF)[C@@H]1Cc1cc(F)cc(-c2ccccc2)c1F [Compound 375, (6S,7S)-6-((2,5-difluoro-[1,1′-biphenyl]-3-yl)methyl)-7-((fluoromethyl)sulfonamido)-N-((R)-1-fluoropropan-2-yl)-5-azaspiro[2.4]heptane-5-carboxamide]		

SMILES	EC50 [1]	Emax [2]	hOx2 Emax (%) [2]	Emax	EC50 (hOx2 pEC50, CHO cells expressing hOX2R, FLIPR calcium fluorescence)
CS(=O)(=O)N[C@@H]1[C@H](Cc2cccc(-c3ccccc3)c2F)N(C(=O)NCC(F)(F)F)CC12CC2 [Compound 99, (6S,7S)-6-((2-fluoro-[1,1′-biphenyl]-3-yl)methyl)-7-(methylsulfonamido)-N-(2,2,2-trifluoroethyl)-5-azaspiro[2.4]heptane-5-carboxamide]	1 to 10 nM			90 to 100%	
C[C@](O)(C(=O)N1CC2(CC2)[C@H](NS(=O)(=O)CF)[C@@H]1Cc1cccc(-c2ccccc2)c1F)C(F)F [Compound 234, N-((6S,7S)-5-((S)-3,3-difluoro-2-hydroxy-2-methylpropanoyl)-6-((2-fluoro-[1,1′-biphenyl]-3-yl)methyl)-5-azaspiro[2.4]heptan-7-yl)-1-fluoromethanesulfonamide]	1 to 10 nM			90 to 100%	
